Converted amounts (≈) assume the structure as drawn.
Experiments:
[1] = Stability in PBS, HEPES buffer and Mueller Hinton broth; format: physicochemical
Method: (§1) Stability of PDF ECTA compounds was determined in different media: PBS, pH 7.4 (Gibco Life Technologies), 50 mM HEPES buffer (Sigma), pH 7.5, Mueller Hinton broth (Becton Dickinson), mouse and human plasma (Sigma). Dependence of a compound concentration on time was fit to an exponential equation c=co×exp(−k×t)} where c is the running concentration of the compound, co is its initial concentration and t is time. The compound half-life was determined as t1/2=0.693/k.

[2] = Stability in mouse plasma; format: in vitro ADME
Method: as §1

[3] = Stability in human plasma; format: in vitro ADME
Method: as §1

E. coli = experiment: MIC susceptibility testing (NCCLS, 96-well); format: cell-based; details: E. coli ATCC 25922, 18 hours at 35° C.
Method: (§2) The NCCLS (National Committee for Clinical Laboratory Standards) method was used to determine MIC's of antimicrobial compounds. All stocks of tested compounds were prepared in either water or DMSO based on the solubility. At the highest concentration of the tested compound DMSO content should not exceed 0.5%. Briefly 2-fold serial dilutions of test compounds from the highest concentration were made in a 96-well microtiter plate. Each well was inoculated with testing bacteria in broth to a final concentration of approximately 5×10^5 CFU/ml. Bacterial growth was monitored by the increase of optical density at 600 nm using a microplate reader (Tecan SpectraFluor Plus). The MIC was defined as the lowest concentration at which bacteria growth (equivalent to visible growth) was inhibited after 18 hours of incubation at 35° C.

E. faecalis = experiment: MIC susceptibility testing (NCCLS, 96-well); format: cell-based; details: E. faecalis ATCC 29212, 18 hours at 35° C.
Method: as §2

P. aeruginosa = experiment: MIC susceptibility testing (NCCLS, 96-well); format: cell-based; details: P. aeruginosa ATCC 27853, 18 hours at 35° C.
Method: as §2

S. aureus [4] = experiment: MIC susceptibility testing (NCCLS, 96-well); format: cell-based
Method: as §2

S. aureus [5] = experiment: MIC susceptibility testing (modified NCCLS, 384-well); format: cell-based; details: Staphylococcus aureus
Method: The NCCLS (National Committee for Clinical Laboratory Standards), method to determine MIC's of antimicrobial compounds is modified for high-throughput screening. All stocks of tested compounds are prepared in either water or in DMSO depending on solubility. At the highest concentration, DMSO content should not exceed 0.5%. Briefly, twenty 2-fold serial dilutions of test compounds from the highest concentration are made in a 384-well microtiter plate. Each well is inoculated with testing bacteria in broth to a final concentration of approximately 1–1.5×10^6 cells/ml. Bacterial growth is determined by the increase of optical density at 600 nm using a microplate reader (Tecan SpectraFluor Plus). The MIC is defined as the lowest concentration at which bacterial growth (equivalent to visible growth) was inhibited after 16 to 18 hours of incubation at the appropriate temperature required for the bacteria growth.
Using the assay provided above, the potency of NB2046 was compared to triclosan.

purified PDF = target: T1, purified PDF (Escherichia coli, UniProt P0A6K3); experiment: Cell-free reaction catalyzed by purified PDF (HPLC, Michaelis-Menten); format: biochemical, E. coli; details: different concentrations of actinonin, FIG. 5
T1 construct: made in house; host or cells: PDF-overexpressing E. coli
T1 sequence (P0A6K3 1-169): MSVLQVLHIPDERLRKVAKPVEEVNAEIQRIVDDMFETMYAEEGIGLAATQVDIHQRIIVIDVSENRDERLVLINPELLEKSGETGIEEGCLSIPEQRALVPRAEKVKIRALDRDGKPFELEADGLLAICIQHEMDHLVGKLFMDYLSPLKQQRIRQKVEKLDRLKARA
Method: (§3) In a seperate experiment, cell-free reaction of PDF ECTA compounds has been studied using PDF purified from PDF-overexpressing E. coli following a procedure described in Ragusa S., et al. (2000) and Wei, et al. (2000b). NB3068 conversion was used as an example of a PDF ECTA reaction catalyzed by purified PDF. It was carried out in 50 mM HEPES buffer, pH 7.5 at room temperature. NB3068 concentrations were in the range of 2–250 μM, and the concentration of the enzyme in the reaction mixture was 25 nM. The conversion was monitored by direct injection of the reaction mixture onto an HPLC column (Adsorbosphere HS, C18, 5 μm, 4.6 mm×150 mm, Alltech). […] Kinetic parameters of the reaction were determined fitting the data to the Michaelis-Menten equation.
(§4) To confirm the role of PDF in catalyzing NB3068 transformation the rate of the reaction at different enzyme concentrations was determined (FIGS. 3 and 4). As can been seen the rate of the reaction is proportional to the enzyme concentration.

[6] = substrate: CCn1cc(C(=O)O)c(=O)c2cc(F)c(N3CCN(C(=O)OCc4ccc(OC(=O)[C@H](CC(C)C)NC(=O)[C@H](CCSC)NC=O)cc4)CC3)cc21; experiment: as above; format: biochemical, E. coli; details: other: PDF 25 nM, 50 mM HEPES pH 7.5, room temperature, substrate 2–250 μM
Method: as §3, §4

[7] = S. aureus (MS) ATCC 29213, 18 hours at 35° C.
[8] = 50 mM HEPES buffer, pH 7.5, 6 hours
[9] = 50 mM HEPES buffer, pH 7.5, read-out: t1/2 HEPES
[10] = Mueller Hinton broth, read-out: t1/2 Broth
[11] = PBS, pH 7.4, read-out: t1/2 PBS

In the case of “1-Cyclopropyl-6-fluoro-4-oxo-7-piperazin-1-yl-1,4-dihydro-quinoline-3-carboxylic acid 4-[2-(2-formylamino-4-methylsulfanyl-butyrylamino)-4-methyl-pentanoyloxy]-benzylester [NB3057]”, the “t1/2 Broth” value ([1]; buffer) is reported as 10 h, the “percent of the compound remaining after 6 hours, PBS” value ([1]; buffer, 6 h, pH 7.4) is reported as “(82%)” and the “t1/2 PBS” value ([1]; buffer, pH 7.4) is reported as >12 h. For the same molecule, the “t1/2 HEPES” value ([1]; buffer, pH 7.5) was >12 h, the “t1/2 Mouse Plasma” value [2] was 1.4 min and the “t1/2 Human Plasma” value [3] was <30 s. For the same molecule, the MIC (E. coli) was 0.0625 µg/mL, the MIC (E. faecalis) was 4 µg/mL and the MIC (P. aeruginosa) was 2 µg/mL. For the same molecule, the MIC (S. aureus [4]; S. aureus (MR) ATCC 33591, 18 hours at 35° C.) was 0.5 µg/mL and the MIC (S. aureus [4]; [7]) was 0.125 µg/mL.

For `CSCC[C@H](NC=O)C(=O)N[C@@H](CC(C)C)C(=O)Oc1ccc(CSc2cccc[n+]2[O-])cc1` [NB3024], the “percent of the compound remaining after 6 hours, HEPES” value [1, 8] was “(88%)”, the half-life [1, 9] was > 12 h and the “percent of the compound remaining after 6 hours, Broth” value ([1]; Mueller Hinton broth, 6 hours) was “(82%)”. For the same molecule, the half-life [1, 10] was > 12 h, the “percent of the compound remaining after 6 hours, PBS” value ([1]; PBS, pH 7.4, 6 hours) was “(81%)” and the half-life [1, 11] was > 12 h. It also gave an MIC (E. coli) of 16 µg/mL (≈ 31.6 µM), an MIC (E. faecalis) of 32 µg/mL (≈ 63.3 µM) and an MIC (P. aeruginosa) of 128 µg/mL (≈ 253 µM). It also gave an MIC (S. aureus [4]; [7]) of 8 µg/mL (≈ 15.8 µM).

For `CCn1cc(C(=O)O)c(=O)c2cc(F)c(N3CCN(C(=O)OCc4ccc(OC(=O)[C@H](CC(C)C)NC(=O)[C@H](CCSC)NC=O)cc4)CC3)cc21` [NB3068, 1-Ethyl-6-fluoro-7-(4-{4-[2-(2-formylamino-4-methylsulfanyl-butyrylamino)-4-methyl-pentanoyloxy]-benzyloxycarbonyl}-piperazin-1yl)-4-oxo-1,4-dihydro-qiuinoline-3-carboxylic acid], the “percent of the compound remaining after 6 hours, HEPES” value [1, 8] was “(70%)”, the half-life [1, 9] was > 12 h and the “percent of the compound remaining after 6 hours, Broth” value ([1]; Mueller Hinton broth, 6 hours) was “(70%)”. For the same molecule, the half-life [1, 10] was > 12 h, the “percent of the compound remaining after 6 hours, PBS” value ([1]; PBS, pH 7.4, 6 hours) was “(75%)” and the half-life [1, 11] was > 12 h. For the same molecule, the half-life ([2]; read-out: t1/2 Mouse Plasma) was 36 s, the half-life ([3]; read-out: t1/2 Human Plasma) was 4.1 min and the MIC (E. coli) was < 0.004 µg/mL. It also gave an MIC (E. faecalis) of 2 µg/mL (≈ 2.7 µM), an MIC (P. aeruginosa) of 0.5 µg/mL (≈ 0.674 µM) and an MIC (S. aureus [4]; [7]) of 2 µg/mL (≈ 2.7 µM).

For `CSCC[C@H](NC=O)C(=O)N[C@@H](CC(C)C)C(=O)Oc1ccc(COC(=O)N(CCCl)CCCl)cc1` [NB3103, 2-(2-Formylamino-4-methylsulfanyl-butyrylamino)-4-methyl-pentanoic acid 4-{[bis-(2-chloro-ethyl)-carbamoyloxy]-methyl}-phenyl ester], the “percent of the compound remaining after 6 hours, HEPES” value [1, 8] was “(95%)”, the half-life [1, 9] was > 12 h and the “percent of the compound remaining after 6 hours, Broth” value ([1]; Mueller Hinton broth, 6 hours) was “(95%)”. For the same molecule, the “percent of the compound remaining after 6 hours, PBS” value ([1]; PBS, pH 7.4, 6 hours) was “(96%)”, the half-life ([1]; buffer, Mueller Hinton broth, read-out: t1/2 Broth) was > 12 h and the half-life ([1]; buffer, PBS, pH 7.4, read-out: t1/2 PBS) was > 12 h. The MIC (E. coli) was > 128 µg/mL, the MIC (E. faecalis) was > 128 µg/mL and the MIC (P. aeruginosa) was > 128 µg/mL. For the same molecule, the MIC (S. aureus [4]; [7]) was > 128 µg/mL.

`Oc1cc(Cl)ccc1Oc1ccc(Cl)cc1Cl` [Triclosan, reference compound] gave an MIC (S. aureus [5]; ATCC 11632 / MSSA) of 0.00195 µg/mL (≈ 0.00675 µM), an MIC (S. aureus [5]; ATCC 13301 / MSSA) of 0.000488 µg/mL (≈ 0.00169 µM) and an MIC (S. aureus [5]; ATCC 14154 / MSSA) of 0.00195 µg/mL (≈ 0.00675 µM). It also gave an MIC (S. aureus [5]; ATCC 33591 / MSSA) of 0.00781 µg/mL (≈ 0.027 µM), an MIC (S. aureus [5]; ATCC 33592 / MSSA) of 0.00391 µg/mL (≈ 0.0135 µM) and an MIC (S. aureus [5]; ATCC 33593 / MSSA) of 0.000977 µg/mL (≈ 0.00337 µM). For the same molecule, the MIC (S. aureus [5]; ATCC 43300 / MSSA) was 0.00195 µg/mL (≈ 0.00675 µM), the MIC (S. aureus [5]; ATCC 700260 / MSSA) was 0.000244 µg/mL (≈ 0.000843 µM) and the MIC (S. aureus [5]; ATCC 700698 / MSSA) was 0.00391 µg/mL (≈ 0.0135 µM). The MIC (S. aureus [5]; ATCC 700699 / MSSA) was ≥ 4 µg/mL, the MIC (S. aureus [5]; ATCC 700787 / MSSA) was 0.00195 µg/mL (≈ 0.00675 µM) and the MIC (S. aureus [5]; ATCC 700788 / MSSA) was 0.0312 µg/mL (≈ 0.108 µM). It also gave an MIC (S. aureus [5]; ATCC 700789 / MSSA) of 0.0156 µg/mL (≈ 0.054 µM).

With `CCCCC[C@H](CC(=O)NO)C(=O)N[C@H](C(=O)N1CCC[C@H]1CO)C(C)C` [actinonin] the “Effect on NB3068 reaction catalyzed by purified PDF” value (purified PDF) was “slows down the reaction in dose dependent manner”.

B1: purified PDF (Escherichia coli K-12) (protein)
chain: MSVLQVLHIPDERLRKVAKPVEEVNAEIQRIVDDMFETMYAEEGIGLAATQVDIHQRIIVIDVSENRDERLVLINPELLEKSGETGIEEGCLSIPEQRALVPRAEKVKIRALDRDGKPFELEADGLLAICIQHEMDHLVGKLFMDYLSPLKQQRIRQKVEKLDRLKARA
notes: made in house; host or cells: PDF-overexpressing E. coli
B1 gave a Km [6] of 125 ± 17 µM, a kcat [6] of 2.07 ± 0.14 s⁻¹ and a kcat/Km [6] of 17000 M⁻¹ s⁻¹.

Source: patent US7163923B2, “Peptide deformylase activated prodrugs” (Celmed Oncology (USA), Inc., priority 2001, dated 2007)
